Like-named read-outs stand apart in the source and are kept apart here.
How the values were obtained:
[1] = target: NDM-1 (Klebsiella pneumoniae, UniProt C7C422); test: biochemical; format: biochemical; conditions: read-out: NDM-1 IC50
[2] = target: IMP-1 (Serratia marcescens, UniProt P52699); test: biochemical; format: biochemical; conditions: read-out: IMP-1 IC50
[3] = target: VIM-1 (Pseudomonas aeruginosa (strain ATCC 15692 / DSM 22644 / CIP 104116 / JCM 14847 / LMG 12228 / 1C / PRS 101 / PAO1), UniProt A0A0F7KYQ8); test: Enzyme activity: determination of IC50, fluorescence assay with CCF2-FA substrate (VIM-1); format: biochemical
[4] = tested on: Escherichia coli expressing NDM-1 (CLB30005); test: Antibiotic potentiation activity: synergistic concentration (MITC95) with imipenem, OD600 growth; format: cell-based; conditions: for Escherichia coli expressing NDM-1 (CLB 30005) MITC95: concentration giving 95% inhibition of bacterial growth; for Escherichia coli MITC95: Escherichia coli expressing NDM-1 (CLB30005), 95% growth inhibition
How it was run: (§1)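 Clinical MBL-producing strains (E. coli NDM-1, S. marcescens IMP-1, K. pneumoniae VIM-1) from overnight plates were diluted 1:100 into 1.1×CAMHB. Compound was tested with imipenem at 4 μg/ml (optionally 1 μg/ml) or without it. After 22–24 h at 35 °C, growth was read as OD600.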

[5] = tested on: Klebsiella pneumoniae expressing VIM-1 (IHMA599644); test: as above; format: cell-based; conditions: for Klebsiella pneumoniae expressing VIM-1 (IHMA 599644) MITC95: concentration giving 95% inhibition of bacterial growth; for Klebsiella pneumoniae MITC95: Klebsiella pneumoniae expressing VIM-1 (IHMA599644), 95% growth inhibition
How it was run: as §1

[6] = tested on: Serratia marcescens expressing IMP-1 (CL5741); test: as above; format: cell-based; conditions: for Serratia marcescens expressing IMP-1 (CL5741) MITC95: concentration giving 95% inhibition of bacterial growth; for Serratia marcescens MITC95: Serratia marcescens expressing IMP-1 (CL5741), 95% growth inhibition
How it was run: as §1

[7] = fluorescence assay with CCF2-FA substrate
[8] = fluorescence assay with CCF2-FA substrate, read-out: VIM-1 IC50
[9] = NDM-1 enzyme, CCF2-FA fluorescence assay
[10] = IMP-1 enzyme, CCF2-FA fluorescence assay
[11] = VIM-1 enzyme, CCF2-FA fluorescence assay, read-out: VIM-1 IC50

NDM-1, sequence (C7C422 whole entry, looked up, species assumed): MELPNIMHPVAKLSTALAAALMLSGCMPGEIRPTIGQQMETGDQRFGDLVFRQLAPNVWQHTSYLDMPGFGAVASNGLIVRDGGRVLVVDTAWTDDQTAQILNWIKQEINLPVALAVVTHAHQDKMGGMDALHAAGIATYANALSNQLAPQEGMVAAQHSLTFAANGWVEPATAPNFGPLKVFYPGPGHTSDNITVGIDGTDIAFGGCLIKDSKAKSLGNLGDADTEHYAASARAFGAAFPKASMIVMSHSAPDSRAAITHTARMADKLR
IMP-1, sequence (P52699 whole entry, looked up): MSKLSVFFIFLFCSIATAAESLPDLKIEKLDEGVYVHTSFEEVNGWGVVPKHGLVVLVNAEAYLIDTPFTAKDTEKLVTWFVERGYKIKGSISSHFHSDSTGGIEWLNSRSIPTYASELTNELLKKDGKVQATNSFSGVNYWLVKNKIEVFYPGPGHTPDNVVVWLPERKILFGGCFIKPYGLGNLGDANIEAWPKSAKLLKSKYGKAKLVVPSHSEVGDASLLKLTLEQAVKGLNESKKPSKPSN

SMILES | IC50 [1, 7] | IC50 [2, 7] | IC50 [3, 8] | Escherichia coli expressing NDM-1 (CLB 30005) MITC95 [4] | Klebsiella pneumoniae expressing VIM-1 (IHMA 599644) MITC95 [5] | Serratia marcescens expressing IMP-1 (CL5741) MITC95 [6] | IC50 [1, 9] | IC50 [2, 10] | IC50 [3, 11] | Escherichia coli MITC95 [4] | Klebsiella pneumoniae MITC95 [5] | Serratia marcescens MITC95 [6] | IC50 ([3]; VIM-1 IC50, fluorescence assay with CCF2-FA substrate)
CC(C)n1nccc1-c1cccc(S(N)(=O)=O)c1-c1nn[nH]n1 [Example 106, 3-[1-(1-methylethyl)-1H-pyrazol-5-yl]-2-(2H-tetrazol-5-yl)benzenesulfonamide] | 9.63 nM | 1800 nM | 962 nM | 3.906 µM | 200 µM | 62.5 µM |  |  |  |  |  |  | 
NS(=O)(=O)c1nccc(-c2ccc(C3CCOCC3)cc2)c1-c1nnn[nH]1 [Example 187, 4-(4-(Tetrahydro-2H-pyran-4-yl)phenyl)-3-(1H-tetrazol-5-yl)pyridine-2-sulfonamide] | 2.81 nM | 28.9 nM | 150 nM | 15.63 µM | >200 µM | 25 µM |  |  |  |  |  |  | 
NS(=O)(=O)c1c(Br)ccc(-c2ccc(C3CCNCC3)cc2)c1-c1nnn[nH]1 [Example 259, 4-Bromo-4′-(piperidin-4-yl)-2-(1H-tetrazol-5-yl)-[1,1′-biphenyl]-3-sulfonamide] |  |  |  |  |  |  | 11 nM | 10.1 nM | 3.1 nM | 1.584 µM | 3.125 µM | 1 µM | 
NS(=O)(=O)c1cccc(-c2ccc(O)nc2)c1-c1nn[nH]n1 [Example 80, 3-(6-hydroxypyridin-3-yl)-2-(2H-tetrazol-5-yl)benzenesulfonamide] | 81.8 nM | 2380 nM |  | 0.3906 µM | 25 µM | 50 µM |  |  |  |  |  |  | 542 nM
NS(=O)(=O)c1cccc(-c2ccc3c(c2)CCCO3)c1-c1nn[nH]n1 [Example 85, 3-(3,4-dihydro-2H-chromen-6-yl)-2-(2H-tetrazol-5-yl)benzenesulfonamide] | 1.81 nM | 94.6 nM | 28 nM | 2.344 µM | 150 µM | 37.5 µM |  |  |  |  |  |  | 
NS(=O)(=O)c1cccc(-c2ccc(S(=O)(=O)NC3CC3)cc2)c1-c1nn[nH]n1 [Example 60, N~4~′-cyclopropyl-2-(2H-tetrazol-5-yl)biphenyl-3,4′-disulfonamide] | 3.17 nM | 16.5 nM | 27.8 nM | 3.906 µM | 75 µM | 4.688 µM |  |  |  |  |  |  | 
CCN(CC)C(=O)c1ccc(-c2cccc(S(N)(=O)=O)c2-c2nn[nH]n2)cc1 [Example 9, N,N-diethyl-3′-sulfamoyl-2′-(2H-tetrazol-5-yl)biphenyl-4-carboxamide] | 1.48 nM | 17.2 nM | 277 nM | 3.125 µM | >200 µM | 12.5 µM |  |  |  |  |  |  | 
NS(=O)(=O)c1cccc(-c2ccc3cn[nH]c3c2)c1-c1nn[nH]n1 [Example 90, 3-(1H-indazol-6-yl)-2-(2H-tetrazol-5-yl)benzenesulfonamide] | 2.24 nM | 197 nM | 15.5 nM | 0.5859 µM | 12.5 µM | 25 µM |  |  |  |  |  |  | 
Cc1ccc(-c2cc(-c3cccnc3)cc(S(N)(=O)=O)c2-c2nn[nH]n2)cc1 [Example 293, 4′-methyl-5-(pyridin-3-yl)-2-(2H-tetrazol-5-yl)-[1,1′-biphenyl]-3-sulfonamide] |  |  |  |  |  |  | 1.02 nM | 86.5 nM | 232 nM | 1.953 µM | >200 µM | 9.375 µM | 
NS(=O)(=O)c1cccc(-c2ccccc2O)c1-c1nn[nH]n1 [Example 326, 2′-hydroxy-2-(2H-tetrazol-5-yl)-[1,1′-biphenyl]-3-sulfonamide] |  |  |  |  |  |  | 3.65 nM | 370 nM | 136 nM | 3.32 µM | 37.5 µM | 18.75 µM | 
NS(=O)(=O)c1nccc(-c2ccc3[nH]nc(C(F)(F)F)c3c2)c1-c1nn[nH]n1 [Example 209, 3-(2H-tetrazol-5-yl)-4-(3-(trifluoromethyl)-1H-indazol-5-yl)pyridine-2-sulfonamide] | 26.3 nM | 516 nM | 5.45 nM | 2.604 µM | 37.5 µM | 75 µM |  |  |  |  |  |  | 

— patent publication US9708336B2, “Metallo-beta-lactamase inhibitors” (priority 2014, dated 2017)
